Results published in patent publication US20090018134A1, “Compounds - 945” (AstraZeneca AB, priority 2007, published 2009).

These compounds were tested against T1, mTOR (Homo sapiens, UniProt P42345) (assay: In Vitro mTOR Kinase Assay (Echo), Test (a)(ii)). Details: not given.
T1 construct: FLAG; made in house
Type: biochemical
Summary of the method: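 Compounds were acoustically dispensed, then incubated with FLAG-tagged mTOR (1362-2549) for 2 hours at room temperature. Reactions were quenched with EDTA plus detection antibody and AlphaScreen beads and left overnight in the dark before reading. Loss of phospho-T389 signal gave IC50 values.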

T1 sequence (P42345 1362-2549): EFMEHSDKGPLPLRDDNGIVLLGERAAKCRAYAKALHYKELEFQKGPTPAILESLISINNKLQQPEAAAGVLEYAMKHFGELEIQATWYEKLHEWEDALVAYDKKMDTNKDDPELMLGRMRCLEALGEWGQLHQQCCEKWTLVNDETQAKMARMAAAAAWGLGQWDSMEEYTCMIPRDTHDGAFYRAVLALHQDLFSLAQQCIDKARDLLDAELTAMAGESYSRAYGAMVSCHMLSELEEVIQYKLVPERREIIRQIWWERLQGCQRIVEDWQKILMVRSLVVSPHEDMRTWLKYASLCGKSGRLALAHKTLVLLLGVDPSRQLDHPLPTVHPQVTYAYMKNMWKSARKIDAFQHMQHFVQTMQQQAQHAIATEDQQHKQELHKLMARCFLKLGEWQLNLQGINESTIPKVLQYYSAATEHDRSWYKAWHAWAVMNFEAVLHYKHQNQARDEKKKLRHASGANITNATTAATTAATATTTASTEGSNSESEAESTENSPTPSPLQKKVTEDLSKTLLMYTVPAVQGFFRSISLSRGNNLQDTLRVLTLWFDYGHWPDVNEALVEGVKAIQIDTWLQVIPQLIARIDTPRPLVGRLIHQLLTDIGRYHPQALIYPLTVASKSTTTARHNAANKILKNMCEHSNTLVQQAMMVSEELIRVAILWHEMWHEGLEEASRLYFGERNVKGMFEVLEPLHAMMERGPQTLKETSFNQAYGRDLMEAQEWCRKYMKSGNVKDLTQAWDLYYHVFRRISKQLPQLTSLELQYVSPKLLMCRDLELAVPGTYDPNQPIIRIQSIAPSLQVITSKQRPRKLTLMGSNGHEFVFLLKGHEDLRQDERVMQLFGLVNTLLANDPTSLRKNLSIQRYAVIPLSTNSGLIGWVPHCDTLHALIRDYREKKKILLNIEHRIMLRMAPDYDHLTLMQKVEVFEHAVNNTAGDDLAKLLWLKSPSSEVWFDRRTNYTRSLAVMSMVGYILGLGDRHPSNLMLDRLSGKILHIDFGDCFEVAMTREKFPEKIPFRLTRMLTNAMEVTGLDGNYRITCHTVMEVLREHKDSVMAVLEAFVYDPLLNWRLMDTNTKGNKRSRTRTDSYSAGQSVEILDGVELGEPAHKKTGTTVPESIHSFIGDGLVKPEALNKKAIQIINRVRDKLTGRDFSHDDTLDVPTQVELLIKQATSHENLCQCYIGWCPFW

Question: For `C[C@H]1COCCN1c1cc(C2(S(=O)(=O)c3ccccc3)CC2)nc(-c2ccc(NC(=O)NCCCl)cc2)n1` [Example 36ee, 1-[4-[4-[1-(benzenesulfonyl)cyclopropyl]-6-[(3S)-3-methylmorpholin-4-yl]pyrimidin-2-yl]phenyl]-3-(2-chloroethyl)urea], which IC50 is on record?
Answer: The IC50 was 9.58 nM.

Same assay, conditions: table of enzyme assay Test (a)(ii); read-out: Test (a)(ii) IC50

Question: Which IC50 does the source give for `C[C@H]1COCCN1c1cc(C2(S(=O)(=O)c3ccccc3)CC2)nc(-c2ccc(NC(=O)NCC(=O)N(C)C)cc2)n1` [Example 36dq, 2-[[4-[4-[1-(benzenesulfonyl)cyclopropyl]-6-[(3S)-3-methylmorpholin-4-yl]pyrimidin-2-yl]phenyl]carbamoylamino]-N,N-dimethylacetamide] here?
Answer: Its IC50 is 24.5 nM.

Question: For `C[C@H]1COCCN1c1cc(C2(S(=O)(=O)c3ccccc3)CC2)nc(-c2ccc(NC(=O)N(C)C3CC3)cc2)n1` [Example 36dr, 3-[4-[4-[1-(benzenesulfonyl)cyclopropyl]-6-[(3S)-3-methylmorpholin-4-yl]pyrimidin-2-yl]phenyl]-1-cyclopropyl-1-methylurea], which IC50 is on record?
Answer: The IC50 was 294 nM.

Question: Which IC50 does the source give for `C[C@H]1COCCN1c1cc(C2(S(=O)(=O)c3ccccc3)CC2)nc(-c2ccc(NC(=O)NCCF)cc2)n1` [Example 36ds, 1-[4-[4-[1-(benzenesulfonyl)cyclopropyl]-6-[(3S)-3-methylmorpholin-4-yl]pyrimidin-2-yl]phenyl]-3-(2-fluoroethyl)urea] here?
Answer: The IC50 was 0.973 nM.

Question: `C[C@H]1COCCN1c1cc(C2(S(=O)(=O)c3ccccc3)CCC2)nc(-c2ccc(NC(=O)NCCC#N)cc2)n1` [Example 36dt, 1-[4-[4-[1-(benzenesulfonyl)cyclobutyl]-6-[(3S)-3-methylmorpholin-4-yl]pyrimidin-2-yl]phenyl]-3-(2-cyanoethyl)urea] was tested. Which IC50 did it give?
Answer: The IC50 was 0.37 nM.

Question: For `C[C@H]1COCCN1c1cc(C2(S(=O)(=O)c3ccccc3)CCC2)nc(-c2ccc(NC(=O)NCc3ncc[nH]3)cc2)n1` [Example 36du, 1-[4-[4-[1-(benzenesulfonyl)cyclobutyl]-6-[(3S)-3-methylmorpholin-4-yl]pyrimidin-2-yl]phenyl]-3-(1H-imidazol-2-ylmethyl)urea], which IC50 is on record?
Answer: The IC50 was 15.2 nM.

Question: For `C[C@H]1COCCN1c1cc(C2(S(=O)(=O)c3ccccc3)CC2)nc(-c2ccc(NC(=O)Nc3ccn(C)n3)cc2)n1` [Example 36dv, 1-[4-[4-[1-(benzenesulfonyl)cyclopropyl]-6-[(3S)-3-methylmorpholin-4-yl]pyrimidin-2-yl]phenyl]-3-(1-methypyrazol-3-yl)urea], which IC50 is on record?
Answer: Its IC50 is 4.3 nM.

Question: With `Cc1cc(NC(=O)Nc2ccc(-c3nc(N4CCOC[C@@H]4C)cc(C4(S(=O)(=O)c5ccccc5)CC4)n3)cc2)no1` [Example 36dw, 3-[4-[4-[1-(benzenesulfonyl)cyclopropyl]-6-[(3S)-3-methylmorpholin-4-yl]pyrimidin-2-yl]phenyl]-1-(5-methyl-1,2-oxazol-3-yl)urea] as the compound, how does the IC50 read?
Answer: Its IC50 is 6.24 nM.

Question: How did the IC50 turn out when `C[C@H]1COCCN1c1cc(C2(S(=O)(=O)c3ccccc3)CC2)nc(-c2ccc(NC(=O)NCC(F)F)cc2)n1` [Example 36dx, 1-[4-[4-[1-(benzenesulfonyl)cyclopropyl]-6-[(3S)-3-methylmorpholin-4-yl]pyrimidin-2-yl]phenyl]-3-(2,2-difluoroethyl)urea] was run?
Answer: Its IC50 is 2.62 nM.

Question: `C[C@H]1COCCN1c1cc(C2(S(=O)(=O)c3ccccc3)CC2)nc(-c2ccc(NC(=O)Nc3ncco3)cc2)n1` [Example 36dy, 1-[4-[4-[1-(benzenesulfonyl)cyclopropyl]-6-[(3S)-3-methylmorpholin-4-yl]pyrimidin-2-yl]phenyl]-3-(1,3-oxazol-2-yl)urea] was tested. Which IC50 did it give?
Answer: Its IC50 is 6.36 nM.

Question: `C[C@H]1COCCN1c1cc(C2(S(=O)(=O)c3ccccc3)CC2)nc(-c2ccc(NC(=O)Nc3ccon3)cc2)n1` [Example 36dz, 1-[4-[4-[1-(benzenesulfonyl)cyclopropyl]-6-[(3S)-3-methylmorpholin-4-yl]pyrimidin-2-yl]phenyl]-3-(1,2-oxazol-3-yl)urea] was tested. Which IC50 did it give?
Answer: Its IC50 is 2.77 nM.

Question: For `C[C@H]1COCCN1c1cc(C2(S(=O)(=O)C3CC3)CCC2)nc(-c2ccc(NC(=O)NC3CC3)cc2)n1` [Example 36e, 3-cyclopropyl-1-[4-[4-(1-cyclopropylsulfonylcyclobutyl)-6-[(3S)-3-methylmorpholin-4-yl]pyrimidin-2-yl]phenyl]urea], which IC50 is on record?
Answer: The IC50 was 6.67 nM.

Question: With `C[C@H]1COCCN1c1cc(C2(S(=O)(=O)c3ccccc3)CC2)nc(-c2ccc(NC(=O)NCC(F)(F)F)cc2)n1` [Example 36ea, 1-[4-[4-[1-(benzenesulfonyl)cyclopropyl]-6-[(3S)-3-methylmorpholin-4-yl]pyrimidin-2-yl]phenyl]-3-(2,2,2-trifluroethyl)urea] as the compound, how does the IC50 read?
Answer: The IC50 was 8.84 nM.

Question: Which IC50 does the source give for `C[C@H]1COCCN1c1cc(C2(S(=O)(=O)c3ccccc3)CC2)nc(-c2ccc(NC(=O)Nc3cn(C)cn3)cc2)n1` [Example 36eb, 1-[4-[4-[1-(benzenesulfonyl)cyclopropyl]-6-[(3S)-3-methylmorpholin-4-yl]pyrimidin-2-yl]phenyl]-3-(1-methylimidazol-4-yl)urea] here?
Answer: Its IC50 is 3.11 nM.

Question: Which IC50 does the source give for `C[C@@H](CO)NC(=O)Nc1ccc(-c2nc(N3CCOC[C@@H]3C)cc(C3(S(=O)(=O)c4ccccc4)CC3)n2)cc1` [Example 36ec, 1-[4-[4-[1-(benzenesulfonyl)cyclopropyl]-6-[(3S)-3-methylmorpholin-4-yl]pyrimidin-2-yl]phenyl]-3-[(2S)-1-hydroxypropan-2-yl]urea] here?
Answer: The IC50 was 3.21 nM.

Question: Which IC50 does the source give for `C[C@H](CO)NC(=O)Nc1ccc(-c2nc(N3CCOC[C@@H]3C)cc(C3(S(=O)(=O)c4ccccc4)CC3)n2)cc1` [Example 36ed, 1-[4-[4-[1-(benzenesulfonyl)cyclopropyl]-6-[(3S)-3-methylmorpholin-4-yl]pyrimidin-2-yl]phenyl]-3-[(2R)-1-hydroxypropan-2-yl]urea] here?
Answer: Its IC50 is 7.04 nM.

Question: How did the IC50 turn out when `CCS(=O)(=O)C1(c2cc(N3CCOC[C@@H]3C)nc(-c3ccc(NC(=O)NCCF)cc3)n2)CC1` [Example 36ef, 1-[4-[4-(1-ethylsulfonylcyclopropyl)-6-[(3S)-3-methylmorpholin-4-yl]pyrimidin-2-yl]phenyl]-3-(2-fluorethyl)urea] was run?
Answer: The IC50 was 8.41 nM.

Question: With `CCS(=O)(=O)C1(c2cc(N3CCOC[C@@H]3C)nc(-c3ccc(NC(=O)NCC(F)F)cc3)n2)CC1` [Example 36eg, 3-(2,2-difluoroethyl)-1-[4-[4-(1-ethylsulfonylcyclopropyl)-6-[(3S)-3-methylmorpholin-4-yl]pyrimidin-2-yl]phenyl]urea] as the compound, how does the IC50 read?
Answer: The IC50 was 8.77 nM.

Question: How did the IC50 turn out when `C[C@H]1COCCN1c1cc(C2(S(=O)(=O)C3CC3)CCC2)nc(-c2ccc(NC(=O)NCCO)cc2)n1` [Example 36f, 1-[4-[4-(1-cyclopropylsulfonylcyclobutyl)-6-[(3S)-3-methylmorpholin-4-yl]pyrimidin-2-yl]phenyl]-3-(2-hydroxyethyl)urea] was run?
Answer: The IC50 was 2.78 nM.

Question: `C[C@H]1COCCN1c1cc(C2(S(=O)(=O)C3CC3)CCC2)nc(-c2ccc(NC(=O)NCCC#N)cc2)n1` [Example 36g, 3-(2-cyanoethyl)-1-[4-[4-(1-cyclopropylsulfonylcyclobutyl)-6-[(3S)-3-methylmorpholin-4-yl]pyrimidin-2-yl]phenyl]urea] was tested. Which IC50 did it give?
Answer: The IC50 was 8.41 nM.

Question: How did the IC50 turn out when `C[C@H]1COCCN1c1cc(C2(S(=O)(=O)C3CC3)CCC2)nc(-c2ccc(NC(=O)Nc3cnn(C)c3)cc2)n1` [Example 36h, 1-[4-[4-(1-cyclopropylsulfonylcyclobutyl)-6-[(3S)-3-methylmorpholin-4-yl]pyrimidin-2-yl]phenyl]-3-(1-methylpyrazol-4-yl)urea] was run?
Answer: The IC50 was 3.14 nM.

Question: For `C[C@H]1COCCN1c1cc(C2(S(=O)(=O)C3CC3)CCC2)nc(-c2ccc(NC(=O)NCc3ncc[nH]3)cc2)n1` [Example 36i, 1-[4-[4-(1-cyclopropylsulfonylcyclobutyl)-6-[(3S)-3-methylmorpholin-4-yl]pyrimidin-2-yl]phenyl]-3-(1H-imidazol-2-ylmethyl)urea], which IC50 is on record?
Answer: The IC50 was 51.8 nM.

Question: `C[C@H]1COCCN1c1cc(C2(S(=O)(=O)C3CC3)CCCC2)nc(-c2ccc(NC(=O)NC3CC3)cc2)n1` [Example 36j, 3-cyclopropyl-1-[4-[4-(1-cyclopropylsulfonylcyclopentyl)-6-[(3S)-3-methylmorpholin-4-yl]pyrimidin-2-yl]phenyl]urea] was tested. Which IC50 did it give?
Answer: The IC50 was 18 nM.

Question: Which IC50 does the source give for `C[C@H]1COCCN1c1cc(C2(S(=O)(=O)C3CC3)CCCC2)nc(-c2ccc(NC(=O)NCCO)cc2)n1` [Example 36k, 1-[4-[4-(1-cyclopropylsulfonylcyclopentyl)-6-[(3S)-3-methylmorpholin-4-yl]pyrimidin-2-yl]phenyl]-3-(2-hydroxyethyl)urea] here?
Answer: Its IC50 is 13.1 nM.

Question: With `C[C@H]1COCCN1c1cc(C2(S(=O)(=O)C3CC3)CCCC2)nc(-c2ccc(NC(=O)NCCC#N)cc2)n1` [Example 36l, 3-(2-cyanoethyl)-1-[4-[4-(1-cyclopropylsulfonylcyclopentyl)-6-[(3S)-3-methylmorpholin-4-yl]pyrimidin-2-yl]phenyl]urea] as the compound, how does the IC50 read?
Answer: The IC50 was 42.8 nM.

Question: For `C[C@H]1COCCN1c1cc(C2(S(=O)(=O)C3CC3)CCCC2)nc(-c2ccc(NC(=O)NCCCO)cc2)n1` [Example 36m, 1-[4-[4-(1-cyclopropylsulfonylcyclopentyl)-6-[(3S)-3-methylmorpholin-4-yl]pyrimidin-2-yl]phenyl]-3-(3-hydroxypropyl)urea], which IC50 is on record?
Answer: Its IC50 is 34.7 nM.

Question: How did the IC50 turn out when `Cc1csc(S(=O)(=O)C2(c3cc(N4CCOC[C@@H]4C)nc(-c4ccc(NC(=O)NCc5ncc[nH]5)cc4)n3)CC2)n1` [Example 36n, 3-(1H-imidazol-2-ylmethyl)-1-[4-[4-[(3S)-3-methylmorpholin-4-yl]-6-[1-[(4-methyl-1,3-thiazol-2-yl)sulfonyl]cyclopropyl]pyrimidin-2-yl]phenyl]urea] was run?
Answer: The IC50 was 24.8 nM.

Question: For `Cc1csc(S(=O)(=O)C2(c3cc(N4CCOC[C@@H]4C)nc(-c4ccc(NC(=O)NCCC#N)cc4)n3)CC2)n1` [Example 36o, 3-(2-cyanoethyl)-1-[4-[4-[(3S)-3-methylmorpholin-4-yl]-6-[1-[(4-methyl-1,3-thiazol-2-yl)sulfonyl]cyclopropyl]pyrimidin-2-yl]phenyl]urea], which IC50 is on record?
Answer: Its IC50 is 3.58 nM.

Question: With `Cc1csc(S(=O)(=O)C2(c3cc(N4CCOC[C@@H]4C)nc(-c4ccc(NC(=O)Nc5ncns5)cc4)n3)CC2)n1` [Example 36p, 1-[4-[4-[(3S)-3-methylmorpholin-4-yl]-6-[1-[(4-methyl-1,3-thiazol-2-yl)sulfonyl]cyclopropyl]pyrimidin-2-yl]phenyl]-3-(1,2,4-thiadiazol-5-yl)urea] as the compound, how does the IC50 read?
Answer: The IC50 was 1.61 nM.
